# Where a SMILES comes first, the peptide text is derived from it. [ ]: non-standard residue; d: D form. The star is where a group is joined. Myristoyl = CCCCCCCCCCCCCC(=O)*; Decanoyl = CCCCCCCCCC(=O)*; Ac6c = NC1(C(=O)O)CCCCC1; Orn = NCCC[C@H](N)C(=O)O; X1 = CCCN1C(=O)CC(*)C1=O
# Key:
# [1] = Human plasma half-life assay (LC-MS); format: in vitro ADME; details: incubated at 37° C., read-out: Human Plasma T½ (converted)
# Protocol: (§1) B. Human and Rat Plasma Half-Life Assay
# (§2) 50 μl, was removed at various times, like at 0, 1, 2, 3, 4, 8, 24, 32, 48, 56, 72 hours, mixed with 5 μL formic acid and 150 μL acetonitrile in a microcentrifuge tube, vertexed, and centrifuged for 10 minutes at 10K rpm. The supernatant was transferred to an injection vial and analyzed by LC-MS. The LC-MS system consisted of an API4000 mass spectrometer with an ESI probe. Positive ion mode and full scan detection were used. HPLC separation was carried out on a Luna 3μ C8 (2), 2×30 mm column with a gradient from 90% A to 90% B in 10 minutes at a flow rate of 0.3 ml/min. Buffer A was 1% formic acid in water and buffer B was 1% formic acid acetonitrile.
# [2] = Rat plasma half-life assay (LC-MS); format: in vitro ADME; details: incubated at 37° C., read-out: Rat Plasma T½ (converted)
# Protocol: as §1, §2
SMILES,half-life at 0.1 mg/mL [1],half-life at 0.1 mg/mL [2],half-life at 0.1 mg/ml [1],half-life at 0.1 mg/ml [2]
"CCCN1C(=O)CC(SC[C@H](NC(=O)[C@H](CCCCN)NC(=O)[C@H](Cc2c[nH]c3ccccc23)NC(=O)[C@H](CC(=O)O)NC(=O)[C@H](CC(N)=O)NC(=O)[C@H](CCCCN)NC(=O)[C@H](CCCCN)NC(=O)CNC(=O)[C@H](CCCCN)NC(=O)[C@H](CCC(N)=O)NC(=O)[C@H](C)NC(=O)[C@H](CC(C)C)NC(=O)[C@H](CC(C)C)NC(=O)[C@H](Cc2c[nH]c3ccccc23)NC(=O)[C@H](CC(N)=O)NC(=O)[C@@H](NC(=O)[C@H](Cc2ccccc2)NC(=O)[C@H](CC(=O)O)NC(=O)[C@H](CCC(N)=O)NC(=O)[C@H](CCC(N)=O)NC(=O)[C@H](Cc2c[nH]cn2)NC(=O)[C@@H](NC(=O)[C@H](CCCCN)NC(=O)[C@H](CC(=O)O)NC(=O)[C@H](CCSC)NC(=O)[C@H](C)NC(=O)[C@@H](NC(=O)[C@H](CO)NC(=O)[C@H](Cc2ccc(O)cc2)NC(=O)[C@H](CC(=O)O)NC(=O)[C@H](CO)NC(=O)C2(NC(C)=O)CCCCC2)[C@@H](C)CC)[C@@H](C)CC)C(C)C)C(=O)N[C@@H](CC(N)=O)C(=O)N[C@H](C(=O)N[C@H](C(=O)N[C@@H](CCC(N)=O)C(=O)O)[C@@H](C)O)[C@@H](C)CC)C1=O (some centres unmarked) [Example 4, [Ac-A6c^7, Cys(Psu)^38]hGIP(7-42)-OH] (Ac-[Ac6c]SDYSIAMDKIHQQDFVNWLLAQKGKKNDWKC(X1)NITQ-OH)",10 h,6 h,–,–
"CCCN1C(=O)CC(SC[C@H](NC(=O)[C@H](CC(=O)O)NC(=O)[C@H](CC(N)=O)NC(=O)[C@H](CCCCN)NC(=O)[C@H](CCCCN)NC(=O)CNC(=O)[C@H](CCCCN)NC(=O)[C@H](CCC(N)=O)NC(=O)[C@H](C)NC(=O)[C@H](CC(C)C)NC(=O)[C@H](CC(C)C)NC(=O)[C@H](Cc2c[nH]c3ccccc23)NC(=O)[C@H](CC(N)=O)NC(=O)[C@@H](NC(=O)[C@H](Cc2ccccc2)NC(=O)[C@H](CC(=O)O)NC(=O)[C@H](CCC(N)=O)NC(=O)[C@H](CCC(N)=O)NC(=O)[C@H](Cc2c[nH]cn2)NC(=O)[C@@H](NC(=O)[C@H](CCCCN)NC(=O)[C@H](CC(=O)O)NC(=O)[C@H](CCSC)NC(=O)[C@H](C)NC(=O)[C@@H](NC(=O)[C@H](CO)NC(=O)[C@H](Cc2ccc(O)cc2)NC(=O)[C@H](CC(=O)O)NC(=O)[C@H](CO)NC(=O)C2(NC(C)=O)CCCCC2)[C@@H](C)CC)[C@@H](C)CC)C(C)C)C(=O)N[C@@H](CCCCN)C(=O)N[C@@H](Cc2c[nH]cn2)C(=O)N[C@@H](CC(N)=O)C(=O)N[C@H](C(=O)N[C@H](C(=O)N[C@@H](CCC(N)=O)C(=O)O)[C@@H](C)O)[C@@H](C)CC)C1=O (some centres unmarked) [Example 5, [Ac-A6c^7, Cys(Psu)^36]hGIP(7-42)-OH] (Ac-[Ac6c]SDYSIAMDKIHQQDFVNWLLAQKGKKNDC(X1)KHNITQ-OH)",7.8 h,8.5 h,–,–
"CCCN1C(=O)CC(SC[C@H](NC(=O)[C@H](CC(N)=O)NC(=O)[C@H](CCCCN)NC(=O)[C@H](CCCCN)NC(=O)CNC(=O)[C@H](CCCCN)NC(=O)[C@H](CCC(N)=O)NC(=O)[C@H](C)NC(=O)[C@H](CC(C)C)NC(=O)[C@H](CC(C)C)NC(=O)[C@H](Cc2c[nH]c3ccccc23)NC(=O)[C@H](CC(N)=O)NC(=O)[C@@H](NC(=O)[C@H](Cc2ccccc2)NC(=O)[C@H](CC(=O)O)NC(=O)[C@H](CCC(N)=O)NC(=O)[C@H](CCC(N)=O)NC(=O)[C@H](Cc2c[nH]cn2)NC(=O)[C@@H](NC(=O)[C@H](CCCCN)NC(=O)[C@H](CC(=O)O)NC(=O)[C@H](CCSC)NC(=O)[C@H](C)NC(=O)[C@@H](NC(=O)[C@H](CO)NC(=O)[C@H](Cc2ccc(O)cc2)NC(=O)[C@H](CC(=O)O)NC(=O)[C@H](CO)NC(=O)C2(NC(C)=O)CCCCC2)[C@@H](C)CC)[C@@H](C)CC)C(C)C)C(=O)N[C@@H](Cc2c[nH]c3ccccc23)C(=O)N[C@@H](CCCCN)C(=O)N[C@@H](Cc2c[nH]cn2)C(=O)N[C@@H](CC(N)=O)C(=O)N[C@H](C(=O)N[C@H](C(=O)N[C@@H](CCC(N)=O)C(=O)O)[C@@H](C)O)[C@@H](C)CC)C1=O (some centres unmarked) [Example 6, [Ac-A6c^7, Cys(Psu)^35]hGIP(7-42)-OH] (Ac-[Ac6c]SDYSIAMDKIHQQDFVNWLLAQKGKKNC(X1)WKHNITQ-OH)",8 h,3.2 h,–,–
"CCCN1C(=O)CC(SC[C@H](NC(=O)[C@H](CCCCN)NC(=O)[C@H](CCCCN)NC(=O)CNC(=O)[C@H](CCCCN)NC(=O)[C@H](CCC(N)=O)NC(=O)[C@H](C)NC(=O)[C@H](CC(C)C)NC(=O)[C@H](CC(C)C)NC(=O)[C@H](Cc2c[nH]c3ccccc23)NC(=O)[C@H](CC(N)=O)NC(=O)[C@@H](NC(=O)[C@H](Cc2ccccc2)NC(=O)[C@H](CC(=O)O)NC(=O)[C@H](CCC(N)=O)NC(=O)[C@H](CCC(N)=O)NC(=O)[C@H](Cc2c[nH]cn2)NC(=O)[C@@H](NC(=O)[C@H](CCCCN)NC(=O)[C@H](CC(=O)O)NC(=O)[C@H](CCSC)NC(=O)[C@H](C)NC(=O)[C@@H](NC(=O)[C@H](CO)NC(=O)[C@H](Cc2ccc(O)cc2)NC(=O)[C@H](CC(=O)O)NC(=O)[C@H](CO)NC(=O)C2(NC(C)=O)CCCCC2)[C@@H](C)CC)[C@@H](C)CC)C(C)C)C(=O)N[C@@H](CC(=O)O)C(=O)N[C@@H](Cc2c[nH]c3ccccc23)C(=O)N[C@@H](CCCCN)C(=O)N[C@@H](Cc2c[nH]cn2)C(=O)N[C@@H](CC(N)=O)C(=O)N[C@H](C(=O)N[C@H](C(=O)N[C@@H](CCC(N)=O)C(=O)O)[C@@H](C)O)[C@@H](C)CC)C1=O (some centres unmarked) [Example 7, [Ac-A6c^7, Cys(Psu)^34]hGIP(7-42)-OH] (Ac-[Ac6c]SDYSIAMDKIHQQDFVNWLLAQKGKKC(X1)DWKHNITQ-OH)",7.9 h,1.6 h,–,–
"CCCN1C(=O)CC(SC[C@H](NC(=O)[C@H](CCCCN)NC(=O)[C@H](CCC(N)=O)NC(=O)[C@H](C)NC(=O)[C@H](CC(C)C)NC(=O)[C@H](CC(C)C)NC(=O)[C@H](Cc2c[nH]c3ccccc23)NC(=O)[C@H](CC(N)=O)NC(=O)[C@@H](NC(=O)[C@H](Cc2ccccc2)NC(=O)[C@H](CC(=O)O)NC(=O)[C@H](CCC(N)=O)NC(=O)[C@H](CCC(N)=O)NC(=O)[C@H](Cc2c[nH]cn2)NC(=O)[C@@H](NC(=O)[C@H](CCCCN)NC(=O)[C@H](CC(=O)O)NC(=O)[C@H](CCSC)NC(=O)[C@H](C)NC(=O)[C@@H](NC(=O)[C@H](CO)NC(=O)[C@H](Cc2ccc(O)cc2)NC(=O)[C@H](CC(=O)O)NC(=O)[C@H](CO)NC(=O)C2(NC(C)=O)CCCCC2)[C@@H](C)CC)[C@@H](C)CC)C(C)C)C(=O)N[C@@H](CCCCN)C(=O)N[C@@H](CCCCN)C(=O)N[C@@H](CC(N)=O)C(=O)N[C@@H](CC(=O)O)C(=O)N[C@@H](Cc2c[nH]c3ccccc23)C(=O)N[C@@H](CCCCN)C(=O)N[C@@H](Cc2c[nH]cn2)C(=O)N[C@@H](CC(N)=O)C(=O)N[C@H](C(=O)N[C@H](C(=O)N[C@@H](CCC(N)=O)C(=O)O)[C@@H](C)O)[C@@H](C)CC)C1=O (some centres unmarked) [Example 10, [Ac-A6c^7, Cys(Psu)^31]hGIP(7-42)-OH] (Ac-[Ac6c]SDYSIAMDKIHQQDFVNWLLAQKC(X1)KKNDWKHNITQ-OH)",8 h,2.6 h,–,–
"CCCCCCCCCCCCCC(=O)NCCC[C@H](NC(=O)[C@H](CCCCN)NC(=O)[C@H](CCC(N)=O)NC(=O)[C@H](C)NC(=O)[C@H](CC(C)C)NC(=O)[C@H](CC(C)C)NC(=O)[C@H](Cc1c[nH]c2ccccc12)NC(=O)[C@H](CC(N)=O)NC(=O)[C@@H](NC(=O)[C@H](Cc1ccccc1)NC(=O)[C@H](CC(=O)O)NC(=O)[C@H](CCC(N)=O)NC(=O)[C@H](CCC(N)=O)NC(=O)[C@H](Cc1c[nH]cn1)NC(=O)[C@@H](NC(=O)[C@H](CCCCN)NC(=O)[C@H](CC(=O)O)NC(=O)[C@H](CCSC)NC(=O)[C@H](C)NC(=O)[C@@H](NC(=O)[C@H](CO)NC(=O)[C@H](Cc1ccc(O)cc1)NC(=O)[C@H](CC(=O)O)NC(=O)[C@H](CO)NC(=O)C1(NC(C)=O)CCCCC1)[C@@H](C)CC)[C@@H](C)CC)C(C)C)C(=O)N[C@@H](CCCCN)C(=O)N[C@@H](CCCCN)C(=O)N[C@@H](CC(N)=O)C(=O)N[C@@H](CC(=O)O)C(=O)N[C@@H](Cc1c[nH]c2ccccc12)C(=O)N[C@@H](CCCCN)C(=O)N[C@@H](Cc1c[nH]cn1)C(=O)N[C@@H](CC(N)=O)C(=O)N[C@H](C(=O)N[C@H](C(=O)N[C@@H](CCC(N)=O)C(=O)O)[C@@H](C)O)[C@@H](C)CC [Example 12, [Ac-A6c^7, Orn^31(N-C(O)-(CH2)12-CH3)]hGIP(7-42)-OH] (Ac-[Ac6c]SDYSIAMDKIHQQDFVNWLLAQK[Orn](Myristoyl)KKNDWKHNITQ-OH)",7.3 h,> 72 h,–,–
"CCCCCCCCCC(=O)NCCC[C@H](NC(=O)[C@H](CCCCN)NC(=O)[C@H](CCC(N)=O)NC(=O)[C@H](C)NC(=O)[C@H](CC(C)C)NC(=O)[C@H](CC(C)C)NC(=O)[C@H](Cc1c[nH]c2ccccc12)NC(=O)[C@H](CC(N)=O)NC(=O)[C@@H](NC(=O)[C@H](Cc1ccccc1)NC(=O)[C@H](CC(=O)O)NC(=O)[C@H](CCC(N)=O)NC(=O)[C@H](CCC(N)=O)NC(=O)[C@H](Cc1c[nH]cn1)NC(=O)[C@@H](NC(=O)[C@H](CCCCN)NC(=O)[C@H](CC(=O)O)NC(=O)[C@H](CCSC)NC(=O)[C@H](C)NC(=O)[C@@H](NC(=O)[C@H](CO)NC(=O)[C@H](Cc1ccc(O)cc1)NC(=O)[C@H](CC(=O)O)NC(=O)[C@H](CO)NC(=O)C1(NC(C)=O)CCCCC1)[C@@H](C)CC)[C@@H](C)CC)C(C)C)C(=O)N[C@@H](CCCCN)C(=O)N[C@@H](CCCCN)C(=O)N[C@@H](CC(N)=O)C(=O)N[C@@H](CC(=O)O)C(=O)N[C@@H](Cc1c[nH]c2ccccc12)C(=O)N[C@@H](CCCCN)C(=O)N[C@@H](Cc1c[nH]cn1)C(=O)N[C@@H](CC(N)=O)C(=O)N[C@H](C(=O)N[C@H](C(=O)N[C@@H](CCC(N)=O)C(=O)O)[C@@H](C)O)[C@@H](C)CC [Example 13, [Ac-A6c^7, Orn^31(N-C(O)-(CH2)8-CH3)]hGIP(7-42)-OH] (Ac-[Ac6c]SDYSIAMDKIHQQDFVNWLLAQK[Orn](Decanoyl)KKNDWKHNITQ-OH)",–,–,17.8 h,19 h

# From patent US8450266B2 (Ipsen Pharma S.A.S., priority 2008, dated 2013)
